Data on two substances can be found in paper PMC2832019, “In Vitro Metabolic and Mitogenic Signaling of Insulin Glargine and Its Metabolites” (PLoS ONE, 2010).

Assay [1] has as its system MCF-7 cells, HCT-116 (colorectal cancer) and PC-3 (prostate cancer) cells. As to conditions: ref [49]; cited from earlier work. From the text:
A correlation between IGF1R autophosphorylation and cell proliferation has been recently assumed by Shukla et al., who observed an enhanced growth of the malignant cell line MCF7 after insulin glargine stimulation. The authors have observed 10% and 50% increases of cellular proliferation at 0.31 and about 15 nmol/L. […] Unfortunately, no dose-response curve of IGF1R autophosphorylation as well as no proliferation data from siRNA knockdown of IR have ...

In another assay the target is human IGF1R. Description: Competitive binding, IGF1R. As to conditions: [^125I]IGF-1 as radioactive ligand; means ± SEM, at least three times; read-out: IGF1R affinity IC50. As to the method:
(§1) Binding experiments were conducted in 96-well microplates. Per well 2 µg of membranes were incubated with 0.25 mg wheat germ agglutinin polyvinyltoluene polyethylenimine SPA beads, 100 pmol/L A14[^125I]-insulin and various concentrations of unlabeled insulins in a binding buffer containing 0.05 mol/L Tris-HCl pH 7.8, 0.15 mol/L NaCl, 0.1% BSA, Complete Protease Inhibitor for 12 hours at room temperature (23°C). The radioactivity was measured at equilibrium in a microplate scintillation counter (Wallac Microbeta, Freiburg, Germany).
(§2) For each experiment, IC50 or EC50 values were obtained using the 4-parameter logistic model according to Ratkowsky and Reedy (1986). The adjustment was obtained by non-linear regression using the Levenberg-Marquardt algorithm in SAS v9.1.3 software via Biost@t-Speed V2.0-LTS internal application. If necessary, lower and upper asymptotes were set to 0 and 100, respectively.
Figure 4 Activity of insulin analogs on the human IGF1R and mitogenic potential in Saos-2 cells. Analysis of binding to the human IGF1R using [^125I]IGF-1 as radioactive ligand (A) and analysis of the insulin-stimulated autophosphorylation of the human IGF1R overexpressed in MEF cells (B) were done as described in figure 2 and Materials and Methods. Data are given as means ± SEM. […] Confluent cells were starved for 4 h and then incubated for 19 h with increasing concentrations of IGF-1, insulin or analog in serum free medium. [^14C]thymidine was added for further 6 h and the radioactivity measured in a Wallac Micro Scintillation counter. Data are given as means ± SEM from octuplicate sample.

The test system of assay [2] is human IR-B. As to the kind of experiment: Competitive receptor binding (SPA), IR-B. As to the method:
(§3) The binding of the different insulins to the human IR-A and IR-B was analyzed in a competitive binding assay using the scintillation proximity assay as previously described, [30]. […] Briefly, cells were grown to confluence and gently detached, transferred to a centrifugation tube followed by centrifugation for 10 minutes at 600×g at 4°C. The pellet was resuspended in ice-cold 2.25 STM buffer (2.25 mol/L sucrose, 5 mmol/L Tris-HCl pH 7.4, 5 mmol/L MgCl2, 1x Complete Protease Inhibitor) and disrupted using a hand-held Dounce homogenizer followed by sonication. This homogenate was transferred to a centrifugation tube, overlaid with 0.8 STM buffer (0.8 mol/L sucrose, 5 mmol/L Tris-HCl pH 7.4, 5 mmol/L MgCl2, 1x Complete Protease Inhibitor) and centrifuged for 90 minutes at 100 000×g at 4°C. The emerging pellicle at the interface was collected, transferred to a new tube and washed two times with PBS by centrifugation for 10 minutes at 1500×g. The final pellet was resuspended in a small volume of dilution buffer (50 mmol/L Tris-HCl pH 7.4, 5 mmol/L MgCl2, 1x Complete Protease Inhibitor) and homogenized with a Dounce homogenizer. These plasma membrane preparations were stored until usage at –80°C.
as §1, §2
(§4) The binding of a constant concentration of [^125I]insulin to plasma membranes from CHO cells overexpressing either IR-A or IR-B was measured in presence of increasing concentrations of unlabeled competing ligand after incubation at room temperature for 12 h. All data has been corrected for non-specific binding and are expressed as percentage of [^125I]insulin in absence of competing ligand. To analyze the insulin-stimulated activation and subsequent autophosphorylation of the insulin receptor CHO cells overexpressing the human IR-A (C) or IR-B (D) were stimulated for 15 min at 37°C with increasing concentrations of peptides, then the cells were fixed with 3.7% PFA and the amount of phosphotyrosines was analyzed via In-Cell Western. The data represent mean values ± SEM of at least 3 individual experiments measured in quadruplicate.

Assay [3] has as its system human IR-A. As to the kind of experiment: Competitive receptor binding (SPA), IR-A. On the procedure:
as §3, §1, §2, §4

Assay [4] relates to human IR-B. Description: IR-B autophosphorylation (In-Cell Western). It is filed as cell-based. As to conditions: CHO cells overexpressing IR-B, 15 min at 37°C, In-Cell Western; means ± SEM, at least three times; read-out: IR-B auto-phosphorylation EC50.
From the text: (§5) CHO cells expressing either the IR-A or the IR-B isoform were used for IR autophosphorylation assays using In-Cell Western. For the analysis of IGF1R autophosphorylation the receptor was overexpressed in a mouse embryo fibroblast 3T3 Tet off cell line (BD Bioscience, Heidelberg, Germany) that was stably transfected with IGF1R tetracycline-regulatable expression plasmid resulting in the expression of ∼2.6×10^5 IGF1R per cell (as determined by FACS analysis, unpublished data). In order to determine the receptor tyrosine phosphorylation level, cells were seeded into 96-well plates and grown for 48 h. Cells were serum starved with serum-free medium αMEM (PAN Biotech GmbH, Aidenbach, Germany) for 3–4 h. […] After incubation the medium was discarded and the cells were fixed in 3.75% freshly prepared para-formaldehyde for 20 min. Cells were permeabilized with 0.1% Triton-X-100 in PBS for 20 min. Blocking was performed with Odyssey blocking buffer (LI-COR, Bad Homburg, Germany) overnight at 4°C. Anti-pTyr 4G10 (Millipore, Schwalbach, Germany) was incubated for 2 h at room temperature. After incubation of the primary antibody, cells were washed with PBS+0.1% Tween20. The secondary anti-mouse-IgG-800-CW antibody (Rockland, Gilbertsville, PA, USA) was incubated for 1 h. Results were normalized by the quantification of DNA with TO-PRO3 dye (Invitrogen, Karlsruhe, Germany). Data were obtained as relative units (RU) and are presented as fold over basal.
as §2, §4
(§6) Insulin receptor autophosphorylation was studied using CHO cells overexpressing either IR-A or IR-B. For detection an immunocytochemical microplate assay (In-Cell Western) based on two-colour fluorescence was applied.

Assay [5] deals with human IR-A. Description: IR-A autophosphorylation (In-Cell Western). In kind it is cell-based. As to conditions: CHO cells overexpressing IR-A, 15 min at 37°C, In-Cell Western; means ± SEM, at least three times; read-out: IR-A auto-phosphorylation EC50.
From the text: as §5, §2, §4, §6

Regarding insulin detemir, in assay [1], the mitogenic potency entry was “increased mitogenic potency”.

As usually defined, the IC50 is the point on the concentration scale where inhibition reaches its midpoint. Broadly, the EC50 is the concentration needed to bring the measured effect to its halfway point. Take “IGF-2: IGF-2 obtained from R&D Systems and Cell Sciences”: the IC50 at human IGF1R came to 6.68 ± 2.24 nM; at human IR-B [2] (SPA, WGA PVT PEI beads, 2 µg membranes from CHO cells overexpressing IR-B, 100 pmol/L A14[^125I]-insulin, pH 7.8, 12 h, 23°C, means ± SEM, at least three times, read-out: IR-B affinity IC50), 46.6 ± 7.8 nM; on human IR-A [3] (SPA, WGA PVT PEI beads, 2 µg membranes from CHO cells overexpressing IR-A, 100 pmol/L A14[^125I]-insulin, pH 7.8, 12 h, 23°C, means ± SEM, at least three times, read-out: IR-A affinity IC50) it was 6.2 ± 0.34 nM. Further, the “IR-B binding relative to IGF-1 and human insulin” value in the assay on human IR-B [2] (IR-B, in words) is on record as “higher affinity than IGF-1 but with lower affinity than human insulin”. For the same substance, the “higher affinity for IR-A than IR-B” value with human IR-A [3] (IR-A relative to IR-B) stood at 7.5 fold. Also, the “IR-A binding relative to IGF-1 and human insulin” value in the assay with human IR-A [3] (IR-A, in words) is “higher affinity than IGF-1 but with lower affinity than human insulin”. For the same substance, the values for the EC50 with human IR-B [4] and in the assay on human IR-A [5] were 384 ± 68.4 nM and 85.4 ± 5.5 nM, respectively.
